Assay results as given in PubChem BioAssay (NCI).
Values joined by “and” are separate entries in the source; they are usually repeats but may differ in a detail not shown here. Equal entries are not always repeated.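 Interpolation was linear, between the two tested concentrations surrounding the appropriate level; five concentrations were tested over 48 hours in 96-well plates. GI50 marks 50% less growth. TGI: total growth inhibition.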

Experiments:
Assay in all cases: NCI tumour cell line growth inhibition, 48 h
SK-OV-3 ovarian = test system: SK-OV-3 ovarian
KM12 colon = test system: KM12 colon
DU-145 prostate = test system: DU-145 prostate
MOLT-4 leukemia = test system: MOLT-4 leukemia
SK-MEL-2 melanoma = test system: SK-MEL-2 melanoma
CAKI-1 renal = test system: CAKI-1 renal
BT-549 breast = test system: BT-549 breast
NCI-H460 lung = test system: NCI-H460 lung
LOX IMVI melanoma = test system: LOX IMVI melanoma
NCI-H522 lung = test system: NCI-H522 lung

Row | SMILES | GI50 (SK-OV-3 ovarian) [µM] | TGI (SK-OV-3 ovarian) [µM] | TGI (KM12 colon) | GI50 (DU-145 prostate) [µM] | TGI (DU-145 prostate) | GI50 (MOLT-4 leukemia) [µM] | TGI (MOLT-4 leukemia) [µM] | GI50 (SK-MEL-2 melanoma) [µM] | TGI (SK-MEL-2 melanoma) | GI50 (CAKI-1 renal) [µM] | TGI (BT-549 breast) | GI50 (NCI-H460 lung) [µM] | TGI (NCI-H460 lung) | GI50 (LOX IMVI melanoma) [µM] | TGI (LOX IMVI melanoma) [µM] | GI50 (NCI-H522 lung) [µM] | TGI (NCI-H522 lung) [µM] | TGI (CAKI-1 renal) [µM] | GI50 (KM12 colon) [µM] | GI50 (BT-549 breast) [µM]
1 | C/C=C1\C[C@@H]2C(OC)Nc3cc(O)c(OC)cc3C(=O)N2C1 (stereo partly specified) | 0.00827 | 2.37 | 0.34 µM and 0.0408 µM | 0.00348 | 0.0248 µM and 0.21 µM | 0.00248 | 0.225 | 0.00288 | 0.00713 µM and < 0.0159 µM | 0.00752 | 0.0151 µM and 0.0269 µM | 0.00356 | 0.598 µM and 1.53 µM | 0.0035 | 0.0825 | 0.00119 | 0.00432 |  |  | 
2 | Cc1ccc2nc(CC(=O)c3ccc4ccccc4c3)c(=O)[nH]c2c1 |  | > 100 | > 100 µM |  | > 100 µM |  | > 100 |  | > 100 µM |  | > 100 µM |  | > 100 µM |  | > 100 |  | > 100 | > 100 |  | 
3 | CC(=O)OC1CC(C)c2c(Cl)ncnc21 (stereo unspecified) | > 100 | > 100 | > 100 µM | > 100 | > 100 µM | > 100 | > 100 | > 100 | > 100 µM | 45.7 | > 100 µM | > 100 | > 100 µM | > 100 | > 100 | 18 | 41.7 | > 100 | > 100 | > 100
4 | Cc1cccc2c1NC(=O)C2(c1ccc(O)cc1)c1ccc(O)cc1 | 19.2 | 42 | 23.6 µM | 15.3 | 55.4 µM | 11.8 | 75 | 15.7 | 37.8 µM | 26.2 |  | 18.5 | 40.8 µM | 6.76 | 25.6 | 12.6 | 33.4 | > 100 | 3.68 | < 0.01
5 | CC(C)NCCCCCNc1cc(O)cc2cccnc12 | > 100 | > 100 | > 100 µM | > 100 | > 100 µM | > 77.8 | > 100 | > 100 | > 100 µM | > 100 | > 100 µM | > 100 | > 100 µM | > 100 | > 100 | 3.94 | > 100 | > 100 | > 100 | > 37.7
6 | O=C1C(Cl)=C(Nc2ccccn2)C(=O)c2ccccc21 | 13.9 | 26.9 | 10.8 µM | 1.94 | 3.39 µM | 2.79 | 6.6 | 3.05 | 6.66 µM | 3.82 | 4.58 µM | 3.25 | 11.4 µM | 2.04 | 5.29 | 1.89 | 3.69 | 18.8 | 3.45 | 2.09
7 | Cc1csc(-c2ccc3c(c2)COC3(CCCN(C)C)c2ccc(F)cc2)c1 (stereo unspecified) | 1.87 | 3.69 | 3.75 µM | 1.91 | 3.56 µM | 2.55 | 6.69 | 1.96 | 3.95 µM | 1.62 | 3.2 µM | 1.9 | 3.5 µM | 1.77 | 3.24 | 2.06 | 4.31 | 3.01 | 1.95 | 1.6
